Measured values as given in patent US10870619B2 (CJ CHEILJEDANG CORPORATION, priority 2016, dated 2020).
Where two headings read alike, the source gives them in different places.

Details: crystals obtained by the crystallization process of the respective example (pH adjustment, coagulant, pH readjustment, cooling rate vary)
Description: As used herein, the term “bulk density” refers to the density measured based on the volume including voids generated between particles when powder is filled into a container. In particular, the density of powder which is measured after treating the powder by tapping a cylinder filled with the powder with a constant force so as to make the powder within the cylinder dense is called tapped bulk density (hereinafter, “BD”).

| SMILES | BD (tapped bulk density) of the obtained L-methionine crystals | BD (tapped bulk density) of the obtained L-methionine crystals (listed as Ex. 20) | BD (tapped bulk density) of the obtained L-methionine crystals (listed as Ex. 21) | BD (tapped bulk density) of the obtained L-methionine crystals (listed as Ex. 22) |
| --- | --- | --- | --- | --- |
| CSCC[C@H](N)C(=O)O [Example 20, L-methionine] | 760 g/L | 760 g/L | – | – |
| CSCC[C@H](N)C(=O)O [Example 21, L-methionine] | 800 g/L | – | 800 g/L | – |
| CSCC[C@H](N)C(=O)O [Example 22, L-methionine] | 700 g/L | – | – | 700 g/L |
